Reference: the supplement of paper PMC7695840
“And” between values parts separate entries of the source, which are not always exact repeats. Equal values may be shown once. Where a name gives a salt, the structure may show the parent alone.

Tests used:
[1] = tested on: Staphylococcus aureus MW2 (mecA+); experiment: IC50 (growth, competition assay); conditions: cefoxitin: subinhibitory
In short: (§1)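 Signals from DsRed (540/590) and GFP (485/520) were scaled on every plate between single-strain control medians, with No Treatment then set to 0.5. The cells were a 1:1 mix of pre-induced fluorescent S. aureus MW2 strains with and without the resistance gene, grown unshaken for 20 h at 37 °C and 90% humidity in LB in 1536-well plates under a subinhibitory drug dose set each day. Each strain's IC50 was defined as the dose halving the No Treatment signal, or the maximal signal.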

[2] = tested on: Staphylococcus aureus MW2 delta-mecA (mecA-); experiment: IC50 (growth, competition assay); conditions: cefoxitin: subinhibitory
In short: as §1

Row | Structure (SMILES) | IC50 ([1]; fluorescent label: DsRed) | IC50 ([1]; fluorescent label: GFP) | IC50 ([2]; fluorescent label: DsRed) [µM] | IC50 ([2]; fluorescent label: GFP) [µM]
1 | Cc1cc(-n2c(=O)[nH]c(=O)n(C)c2=O)ccc1Oc1ccc(SC(F)(F)F)cc1 [BAYCOX] | 70.8 µM | 113 µM | 59.8 | 32
2 | CC1CCc2cc(F)cc3c(=O)c(C(=O)O)cn1c23 (centres undefined) [Flumequine] | < 9.85 µM | < 9.85 µM | < 9.85 | < 9.85
3 | O=C(Nc1ncc(SCCN2CCCC2)s1)[C@]1(c2ccc(S(=O)(=O)C3CC3)cc2)C[C@H]1C1CCCCC1 | 111 µM | > 150 µM | 74.5 | 34.4
4 | CC(=O)OC[C@H]1O[C@@H]([S-])[C@H](OC(C)=O)[C@@H](OC(C)=O)[C@@H]1OC(C)=O.CCP(CC)CC.[Au+] [Auranofin] | < 9.85 µM | < 9.85 µM | < 9.85 | < 9.85
5 | C[C@H]1O[C@@H](n2cc(F)c(=O)[nH]c2=O)[C@H](O)[C@@H]1O [Doxifluridine] | 3.93 µM | 11.1 µM | 0.661 | < 0.498
6 | Clc1ccc(CO/N=C(\Cn2ccnc2)c2ccc(Cl)cc2Cl)c(Cl)c1 [OXISTAT] | 35.3 µM | 43.3 µM | 30.4 | 17.3
7 | CCOC(=O)CCC(=O)O[C@H]1[C@H](O[C@@H]2[C@@H](C)[C@H](O[C@H]3C[C@@](C)(OC)[C@@H](O)[C@H](C)O3)[C@@H](C)C(=O)O[C@H](CC)[C@@](C)(O)[C@H](O)[C@@H](C)C(=O)[C@H](C)C[C@@]2(C)O)O[C@H](C)C[C@@H]1N(C)C [Erythromycin Ethylsuccinate] | < 9.85 µM | < 9.85 µM | < 9.85 | < 9.85
8 | NC(=O)c1cc[n+](CC2=C(C(=O)[O-])N3C(=O)[C@@H](NC(=O)Cc4cccs4)[C@H]3SC2)cc1 [CEFALONIUM] | 17.5 µM | 15.3 µM | < 9.85 | < 9.85
9 | CC1(C)C=Cc2c(c3c(c4c(=O)c(-c5ccc(O)c(O)c5)coc24)OC(C)(C)CC3)O1 [ISOPOMIFERIN] | 27 µM | 26.6 µM | 11.8 | < 9.85
10 | CCOc1nc2cccc(C(=O)OC(C)OC(=O)OC3CCCCC3)c2n1Cc1ccc(-c2ccccc2-c2nn[nH]n2)cc1 (centres undefined) [ATACAND] | 9.89 µM | 14.8 µM | < 9.85 | < 9.85
11 | C[C@@H]1CN(c2c(F)c(F)c3c(=O)c(C(=O)O)cn(C4CC4)c3c2F)C[C@H](C)N1 [ORBAX] | < 9.85 µM | 15.1 µM | 17.8 | < 9.85
12 | O=S1(=O)N(CCN2CC=C(c3c[nH]c4cc(F)ccc34)CC2)c2cccc3c2N1CCC3 [LY-367,265] | 39 µM | 45 µM | < 9.85 | 13.1
13 | CN(C)[C@@H]1C(O)=C(C(N)=O)C(=O)[C@@]2(O)C(O)=C3C(=O)c4c(O)ccc(Cl)c4[C@@H](O)[C@H]3C[C@@H]12 [DECLOMYCIN] | < 9.85 µM | < 9.85 µM | < 9.85 | < 9.85
14 | O=C(O)Cc1cc(I)c(Oc2ccc(O)c(I)c2)c(I)c1 [TRIAC] | 12.5 µM | 23 µM | 11.1 | < 9.85
15 | CCCCCCCCCCCCCCCC(=O)OC[C@H](O)[C@H]1OC(=O)C(O)=C1O [EMPROVE] | 52.5 µM | 87.6 µM | < 9.85 | < 9.85
16 | CCC(=O)O[C@H]1[C@H](O[C@@H]2[C@@H](C)[C@H](O[C@H]3C[C@@](C)(OC)[C@@H](O)[C@H](C)O3)[C@@H](C)C(=O)O[C@H](CC)[C@@](C)(O)[C@H](O)[C@@H](C)C(=O)[C@H](C)C[C@@]2(C)O)O[C@H](C)C[C@@H]1N(C)C [ILOSONE] | < 9.85 µM | 17 µM | < 9.85 | < 9.85

Row | Structure (SMILES) | IC50 ([1]; fluorescent label: DsRed) | IC50 ([1]; fluorescent label: GFP) | IC50 ([2]; fluorescent label: DsRed) [µM] | IC50 ([2]; fluorescent label: GFP) [µM]
17 | O=S(=O)(c1ccccc1)N(CC(F)(F)F)c1ccc(C(O)(C(F)(F)F)C(F)(F)F)cc1 | 24.6 µM | 29.6 µM | < 9.85 | < 9.85
18 | Cc1ncc(-c2ccnc(Nc3ccc(S(C)(=O)=O)cc3)n2)n1C(C)C [AZD5438] | > 150 µM | > 150 µM | 10.3 | < 9.85
19 | COc1cc(Cc2cnc(N)nc2N)cc(OC)c1OC [Trimethoprim] | 12.4 µM and < 9.85 µM | 14.6 µM and 14.2 µM | < 9.85 | < 9.85
20 | CC1(C)S[C@@H]2[C@H](NC(=O)[C@H](NC(=O)N3CCNC3=O)c3ccccc3)C(=O)N2[C@H]1C(=O)O [Azlocillin sodium salt] | < 9.85 µM | 27.7 µM | < 9.85 | < 9.85
21 | O=C(Nc1ccc([N+](=O)[O-])cc1Cl)c1cc(Cl)ccc1O [NICLOSIDE] | < 9.85 µM | < 9.85 µM | < 9.85 | < 9.85
22 | c1ccc2c(Cc3c[nH]c4ccccc34)c[nH]c2c1 [3,3'-DIINDOLYLMETHANE] | 67.4 µM | 105 µM | 21.7 | 21.4
23 | COC(=O)[C@@]1(C)CCC[C@]2(C)c3ccc(O)c(C(C)C)c3CCC12 (some centres undefined) [TOTAROL-19-CARBOXYLIC ACID, METHYL ESTER] | 27.6 µM | 62.8 µM | 66 | 15.6
24 | NCCOB(c1ccccc1)c1ccccc1 [AMINOETHOXYDIPHENYLBORANE] | 25.6 µM | 25.1 µM | 11.1 | 11.7
25 | O=C(c1ccc(Nc2nccc(-c3cc4ccccc4s3)n2)cc1)N1CCC(N2CCCC2)CC1 [IKK-16] | 49.4 µM | 56.8 µM | 18.3 | 17.7
26 | CCOc1nc2cccc(C(=O)OCc3oc(=O)oc3C)c2n1Cc1ccc(-c2ccccc2-c2noc(=O)[nH]2)cc1 [Azilsartan Medoxomil (TAK-491)] | 48.4 µM | 67 µM | 11.9 | 10.2
27 | Cn1cncc1[C@@](N)(c1ccc(Cl)cc1)c1ccc2c(c1)c(-c1cccc(Cl)c1)cc(=O)n2C [Tipifarnib (Zarnestra)] | 29.6 µM | 15.1 µM | < 9.85 | 11.3
28 | CC(C)(C)c1cc(C(C)(C)C)c(NC(=O)c2c[nH]c3ccccc3c2=O)cc1O [Ivacaftor (VX-770)] | 9.86 µM | 14.8 µM | 1.27 | 1.6
29 | Cc1ccc(Sc2ccccc2N2CCNCC2)c(C)c1 | 43.5 µM | 54.2 µM | < 9.85 | 14.3
30 | COc1ccc2c(c[n+](C)c3c4cc5c(cc4ccc23)OCO5)c1OC [Chelerythrine chloride] | 36.7 µM | 49.2 µM | 15 | < 9.85
31 | C=CCCCCCCCCCCCc1ccco1 [AVOCADENOFURAN] | 48.4 µM | 80.9 µM | 16.1 | < 9.85
